From ChEMBL document CHEMBL1122237, “4,5,6,7-Tetrahydroisothiazolo[5,4-c]pyridin-3-ol and related analogues of THIP. Synthesis and biological activity” (J Med Chem, 1983)
Calls of active or inactive are those of the source. No cut-off for these calls is given here.

Experiments:
[1] = I/U ratio for neutral amino acids; type: functional
GABA transporter [2] = target: T1, GABA transporter (Rattus norvegicus, UniProt P31647+P23978+P31646+P48056); experiment: In vitro effect on GABA uptake in a crude preparation of synaptosomes from rat brain; type: functional, subcellular
Felis catus [3] = species: Felis catus; experiment: In vitro effect of GABA enhancement on single neurons in the cat spinal cord;; type: functional, organism-based
[4] = target: Gamma-aminobutyric acid receptor subunit gamma-1 (Rattus norvegicus, UniProt P23574); experiment: In vitro affinity for GABA binding sites on purified synaptic membranes from rat brain
GABA transporter [5] = target: T1, GABA transporter; type: functional, subcellular, Brain
Description: In vitro effect on GABA uptake in a crude preparation of synaptosomes from rat brain.

[6] = target: GABA-A receptor; anion channel
Description: In vitro affinity for GABA binding sites on purified synaptic membranes from rat brain.

[7] = I/U ratio for neutral amino acids.; type: functional
Felis catus [8] = species: Felis catus; experiment: In vitro effect of Gamma-aminobutyric acid enhancement on single neurons of cat spinal cord; type: functional
[9] = target: T2, GABA-A receptor; anion channel (Homo sapiens) (UniProt P14867+P47870+P18507+P28472+P48169+Q99928+Q9UN88+P34903+O00591+O14764+Q8N1C3+P18505+P78334+P47869+P31644+Q16445); experiment: In vitro effect on Gamma-aminobutyric acid agonism on single neurons of cat spinal cord (- is less active than GABA); type: functional, tissue-based; conditions: Felis catus, filed as partial agonist, target entry is the homologue from another species
[10] = target: T2, GABA-A receptor; anion channel (Homo sapiens); conditions: Felis catus; Spinal cord; filed as agonist
Felis catus [11] = species: Felis catus; experiment: In vitro effect of Gamma-aminobutyric acid enhancement on single neurons of cat spinal cord (ND = no data, No significant activity); type: functional
Felis catus [12] = species: Felis catus; experiment: In vitro effect of glycine antagonism on single neurons of cat spinal cord; Glycine antagonists are indicated by Delta symbol.; type: functional, organism-based; conditions: filed as antagonist
Felis catus [13] = species: Felis catus; experiment: In vitro effect of Gamma-aminobutyric acid enhancement on single neurons of cat spinal cord (No significant activity); type: functional
Felis catus [14] = species: Felis catus; experiment: In vitro effect of glycine antagonism on single neurons in the cat spinal cord; Glycine antagonists are indicated by the Delta symbol.; type: functional, organism-based; conditions: filed as antagonist

Gamma-aminobutyric acid receptor subunit gamma-1, sequence (P23574 whole entry): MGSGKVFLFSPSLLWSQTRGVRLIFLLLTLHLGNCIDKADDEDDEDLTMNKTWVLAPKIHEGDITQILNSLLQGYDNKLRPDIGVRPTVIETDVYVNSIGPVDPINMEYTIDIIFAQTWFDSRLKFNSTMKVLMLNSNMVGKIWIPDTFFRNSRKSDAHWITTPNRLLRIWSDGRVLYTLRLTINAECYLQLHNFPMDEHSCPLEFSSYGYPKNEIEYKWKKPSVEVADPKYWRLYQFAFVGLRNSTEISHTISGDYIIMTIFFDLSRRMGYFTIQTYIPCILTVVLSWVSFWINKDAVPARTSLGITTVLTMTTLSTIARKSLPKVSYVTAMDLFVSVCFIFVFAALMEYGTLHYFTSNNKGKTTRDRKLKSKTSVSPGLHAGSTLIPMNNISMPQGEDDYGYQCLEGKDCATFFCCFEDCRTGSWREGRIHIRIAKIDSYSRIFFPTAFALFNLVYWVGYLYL
Description for physchem: Dissociation constant (pKa)

Compound | pKa (physchem) | IC50 (GABA transporter [5]) [µM] | IC50 [6] [µM] | Ratio [7] | also measured
Oc1noc2c1CNCC2 |  |  |  |  | Ratio [1]: 2500; IC50 (GABA transporter [2]): 160 µM; GABA enhancement (Felis catus [3]): Active; IC50 [4]: 72 µM
COC(=O)N1CCc2snc(O)c2C1 | 7.4 |  |  |  | 
COc1noc2c1CNCC2 | 7.7 |  |  |  | 
Oc1nsc2c1CNCC2 | 6.1 | 230 | > 100 | 63 | GABA enhancement (Felis catus [8]): Active
COc1noc2c1CCNC2 | 7.1 |  |  |  | 
O=C(O)N1CCc2onc(O)c2CC1 | 5.6 |  |  |  | 
COC(=O)N1CCc2c(O)noc2C1 | 5.3 |  |  |  | 
Oc1nsc2c1CCNC2 | 6.1 | 220 | 42 | 16 | GABA agonism [9]: Partial agonist
NCCCC(=O)O |  |  |  |  | GABA agonism [10]: Agonist
COC(=O)N1CCc2snc(O)c2CC1 | 7.6 |  |  |  | 
COC(=O)N1CCc2c(O)nsc2C1 | 7.3 |  |  |  | 
Oc1nsc2c1CCNCC2 |  | 400 | 31 | 200 | GABA enhancement (Felis catus [11]): inactive; Glycine antagonism (Felis catus [12]): Antagonist
Oc1noc2c1CCNCC2 | 4.8 | > 500 | 15 | 4000 | GABA enhancement (Felis catus [13]): inactive; Glycine antagonism (Felis catus [14]): Antagonist
